What was measured:
calf thymus DNA (ctDNA) = assay: DNA intercalation assay (ethidium bromide displacement); assay type: binding; details: ctDNA 15 μg/mL, ethidium bromide 1.5 μM; complexes 5, 10 and 20 μM; doxorubicin 10 μM; data not shown
Method: DNA intercalation was assessed by examining the ability of the complexes to displace ethidium bromide from ctDNA (Sigma-Aldrich Co., Saint Louis, MO, USA). Sexplicate assays (100 μL) were conducted in 96-well plates and contained 15 μg/mL ctDNA, 1.5 μM ethidium bromide and 5, 10 and 20 μM of each complexes in saline solution. […] Fluorescence was measured using excitation and emission wavelengths of 320 nm and 600 nm, respectively using the spectraMax Microplate Reader (Molecular Devices, Sunnyvale, CA, EUA).

caspase-3 = assay: Caspase-3 activation assay (DEVD-pNA, colorimetric); details: HCT116, DEVD-pNA, 48h; PL 10 μM
Method: (§1) To investigate the mechanisms involved in cytotoxic action of the complexes, a new set of experiments was performed. In all experiments, 2 mL of a HCT116 cell solution (7 x 10^4 cells/mL) was inserted in 24-well plates and incubated overnight to allow the cells to adhere to the plate surface. […] The negative control was treated with the vehicle (0.1% of a solution containing 70% sorbitol, 25% tween 80 and 5% water) used for diluting the compounds tested. […] Cell viability was assessed using trypan blue exclusion assay for all experiments.
A caspase-3 colorimetric assay kit (Sigma-Aldrich Co., Saint Louis, MO, USA) was used to investigate caspase-3 activation on complexes-treated HCT116 cells based on the cleavage of DEVD-pNA and the analysis was performed according to the manufacturer’s instructions. Briefly, cells were lysed by incubation with cell lysis buffer on ice for 10 min and then centrifuged. Enzyme reactions were carried out in a 96-well flat-bottom microplate. To each reaction mixture, 5 μL cell lysate was added. Absorbance at 405 nm was measured using the SpectraMax 190 Microplate Reader (Molecular Devices, Sunnyvale, CA, EUA). The results were expressed as specific activity (IU/mg protein) of caspase-3.

HCT116 cells [1] = assay: Cellular reactive oxygen species levels (DCF-DA); assay type: cell-based, human; details: 1 h, PL 10 μM
Method: The levels of ROS were measured according to previously described using DCF-DA (Sigma-Aldrich Co., Saint Louis, MO, USA). In brief, cells were treated with the complexes for 1 and 3 h. Then, the cells were collected, washed with saline and resuspended in FACS tubes with saline containing 5 μM DCF-DA for 30 min.

HCT116 cells [2] = details: HCT116, 24 and 48h; PL 10 μM
Method: as §1
For apoptosis detection, we used a FITC Annexin V Apoptosis Detection Kit I (BD Biosciences, San Jose, CA, EUA) and the analysis were performed according to the manufacturer’s instructions. Briefly, the cells treated were collected after the indicated time, washed twice with cold saline and resuspended in 300 μL binding buffer. Then, it was added 5 μL of Annexin V-FITC staining buffer and 5 μL of propidium iodide. The mixture was incubated in the dark at 37°C for 15 min. Cell fluorescence was measured by flow cytometry as described above.
In a new set of experiments, the cells were pre-treated for 1 h with 5 mM NAC, then incubated with the complexes in the established concentration for 48 h. The cells were then trypsinized and the FITC Annexin V Apoptosis Detection assay and trypan blue exclusion assay were conducted as described above.

HCT116 cells [3] = assay: Measurement of the mitochondrial transmembrane potential (rhodamine 123); details: HCT116, rhodamine 123, 24h; PL 10 μM
Method: as §1
Mitochondrial transmembrane potential was determined by the retention of the dye rhodamine 123 [59]. Cells were incubated with rhodamine 123 (5 μg/mL, Sigma-Aldrich Co., Saint Louis, MO, USA) at 37 °C for 15 min in the dark and washed with saline. The cells were then incubated again in saline at 37 °C for 30 min in the dark and cell fluorescence was determined by flow cytometry as described above.

Row | Compound | DNA intercalation (decrease of ethidium bromide fluorescence) (calf thymus DNA (ctDNA)) | activation of caspase-3 (caspase-3) | intracellular ROS levels (HCT116 cells [1]) | early and late apoptosis (annexin-V/PI) (HCT116 cells [2]) | mitochondrial depolarization (HCT116 cells [3])
1 | COc1cccc2c1C(=O)c1c(O)c3c(c(O)c1C2=O)C[C@@](O)(C(=O)CO)C[C@@H]3O[C@H]1C[C@H](N)[C@H](O)[C@H](C)O1 [Doxorubicin] | significantly reduced fluorescence | – | – | – | –
2 | COc1cc(/C=C/C(=O)N2CCC=CC2=O)cc(OC)c1OC [Piplartine] | – | activation of caspase-3 | induced increasing oxidative stress | induced increasing in the early and late apoptosis | Mitochondrial depolarization

From paper PMC5732813, “Novel piplartine-containing ruthenium complexes: synthesis, cell growth inhibition, apoptosis induction and ROS production on HCT116 cells” (Oncotarget, 2017)
